{"source": "ChEMBL document CHEMBL5729483", "about": "“Compositions and methods for treating infections” (2022)", "molecular_target": "Bifunctional dihydrofolate reductase-thymidylate synthase (Plasmodium falciparum K1, UniProt P13922)", "sequence (P13922 whole entry)": "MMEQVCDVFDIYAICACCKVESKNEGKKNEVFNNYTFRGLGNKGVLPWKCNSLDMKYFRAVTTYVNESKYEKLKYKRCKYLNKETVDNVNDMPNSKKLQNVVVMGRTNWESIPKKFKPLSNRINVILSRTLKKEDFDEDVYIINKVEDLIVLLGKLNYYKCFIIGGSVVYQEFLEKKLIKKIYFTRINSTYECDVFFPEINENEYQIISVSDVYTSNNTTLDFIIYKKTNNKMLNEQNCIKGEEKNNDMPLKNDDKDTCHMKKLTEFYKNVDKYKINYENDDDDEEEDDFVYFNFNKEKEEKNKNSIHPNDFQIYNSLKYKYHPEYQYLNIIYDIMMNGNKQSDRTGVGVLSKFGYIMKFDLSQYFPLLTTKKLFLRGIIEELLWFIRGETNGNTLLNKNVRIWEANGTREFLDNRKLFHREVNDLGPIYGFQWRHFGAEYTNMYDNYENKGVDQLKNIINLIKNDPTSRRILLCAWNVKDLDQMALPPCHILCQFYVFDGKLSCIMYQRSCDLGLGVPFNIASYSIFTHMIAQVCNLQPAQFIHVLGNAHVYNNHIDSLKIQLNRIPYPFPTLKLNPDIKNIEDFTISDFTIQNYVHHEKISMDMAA", "test": "TBD: TBD", "set-up": "species or system Isolate K1 / Thailand", "data": [{"smiles": "Nc1ncc(N2CCN(c3cccc(C4CCOCC4)c3)CC2)c(N)n1", "values": [{"measurement": "IC50", "value": 1.1, "unit": "nM"}]}]}
